Assay results reported in US9453024B2, “Polymorphs of darunavir” (MAPI PHARMA LTD., priority 2009, dated 2016).
Values after ≈ are worked out from the molar mass of the structure shown. Read-outs that look alike come from different tables or passages of the source.

Tests used:
[1] = Particle size distribution and surface area; format: physicochemical
Method: Micronized darunavir dimethylsulfoxide solvate was prepared from the non-micronized form by milling using a jet mill (Super fine vortex Mill™).

[2] = Hygroscopicity (DVS) from 0% to 90%; format: physicochemical; conditions: for weight gain from 0% to 90% (DVS) / hygroscopicity (in words): 25° C.; for hygroscopicity (in words): DVS 0% to 90%
Method: About 10 mg of the tetrahydrofuran solvate form of the present invention were used to test the hygroscopicity (DVS) from 0% to 90% according to the details on Table 2.
About 10 mg of the dimethylsulfoxide solvate form of the present invention were used to test the hygroscopicity (DVS) from 0% to 90% according to the details on Table 2 hereinabove.
The hygroscopicities of the Darunavir forms of the present invention were compared to the hygroscopicity of Darunavir ethanolate API.

[3] = Aqueous solubility in buffers, 24 h shaking at 25° C., HPLC; format: physicochemical; conditions: 24 hours at 25° C.; for solubility at 24 h: 25 °C, thermodynamic from solid
Method: The aqueous solubility of the tetrahydrofuran solvate of darunavir of the present invention was measured. Specifically, about 10 mg of the compound was accurately weighed into a 4 ml clear glass vial followed by the addition of 2.5 ml buffer (at different pH) to the vial. The vial was then mounted on a Thermomixer and was kept shaking for 24 hours at 25° C. The solution was filtered through 0.45 μm PTFE filter. The pH value and concentration of the filtrate were checked by pH meter and HPLC (Agilent 1200; Column: Zorbax SB C18, 4.6 mm×150 mm ID×5 μm; Profile of mobile phase: t=0 water 70, ACN 30; t=15,20 water 0, ACN 100; Column temperature 30° C.; Mobile rate 1.0 mL/min; Detector wavelength 265 nm; The typical retention time of Darunavir is 7.7 min), respectively.
(§1) The aqueous solubility of the dimethylsulfoxide solvate of darunavir of the present invention was measured. Specifically, about 10 mg of the compound was accurately weighed into a 4 ml clear glass vial followed by the addition of 2.5 ml buffer (at different pH) to the vial. The vial was then mounted on a Thermomixer and kept shaking for 24 hours at 25° C. The solution was filtered through 0.45 μm PTFE filter. The pH value and concentration of the filtrate were checked by pH meter and HPLC, respectively.
as §1, with “Specifically,” for “The aqueous solubility of the dimethylsulfoxide solvate of darunavir of the present invention was measured. Specifically,”, “respectively. The results are summarized in Table 11 and in FIG. 8 panel C.” for “respectively.”

[4] = Bulk density; format: physicochemical
[5] = water at 20° C.; cited from earlier work
[6] = pH 1.2 buffer, footnote *degraded
[7] = listed as dimethylsulfoxide solvate form
[8] = listed as tetrahydrofuran solvate form

CC(C)CN(C[C@@H](O)[C@H](Cc1ccccc1)NC(=O)O[C@H]1CO[C@H]2OCC[C@H]21)S(=O)(=O)c1ccc(N)cc1 [[(1S,2R)-3-[[(4-aminophenyl)sulfonyl](2-methylpropyl)amino]-2-hydroxy-1-(phenylmethyl)propyl]-carbamic acid (3R,3aS,6aR)-hexahydrofuro[2,3-b]furan-3-yl ester]
D10 ([1]; listed as Micronized): 1.5 μm | D50 ([1]; listed as Micronized): 3.7 μm | D90 ([1]; listed as Micronized): 7.2 μm | Specific surface area ([1]; listed as Micronized): 2.6 m^2/g | Surface weighted mean ([1]; listed as Micronized): 2.3 μm | Vol. weighted mean ([1]; listed as Micronized): 4.1 μm | Dissolution (15 min, 600 mg/vessel, 75 rpm, 900 mL 2.0% Tween-20 in 0.05M sodium phosphate buffer pH 3.0, 37° C., listed as Micronized): 89.30% | Dissolution (30 min, same medium, listed as Micronized): 94.72% | Dissolution (45 min, same medium, listed as Micronized): 95.98% | Dissolution (60 min, same medium, listed as Micronized): 94.95%

CC(C)CN(C[C@@H](O)[C@H](Cc1ccccc1)NC(=O)O[C@H]1CO[C@H]2OCC[C@H]21)S(=O)(=O)c1ccc(N)cc1 [amorphous darunavir, [(1S,2R)-3-[[(4-aminophenyl)sulfonyl](2-methylpropyl)amino]-2-hydroxy-1-(phenylmethyl)propyl]-carbamic acid (3R,3aS,6aR)-hexahydrofuro[2,3-b]furan-3-yl ester]
weight gain from 0% to 90% (DVS) [2]: 2.617% | hygroscopicity (in words) [2]: hygroscopic | Solubility [3, 6]: 1.73* mg/ml | Solubility ([3]; pH 4.5 buffer): 0.27 mg/mL (≈ 493 µM) | Solubility ([3]; pH 6.8 buffer): 0.24 mg/mL (≈ 438 µM) | Solubility ([3]; pH 7.4 buffer): 0.23 mg/mL (≈ 420 µM) | Solubility ([3]; water): 0.27 mg/mL (≈ 493 µM) | bulk density [4]: 0.445 ± 0.012 g/mL

CC(C)CN(C[C@@H](O)[C@H](Cc1ccccc1)NC(=O)O[C@H]1CO[C@H]2OCC[C@H]21)S(=O)(=O)c1ccc(N)cc1 [darunavir dimethylsulfoxide solvate, [(1S,2R)-3-[[(4-aminophenyl)sulfonyl](2-methylpropyl)amino]-2-hydroxy-1-(phenylmethyl)propyl]-carbamic acid (3R,3aS,6aR)-hexahydrofuro[2,3-b]furan-3-yl ester]
D10 ([1]; listed as Non-micronized): 3.9 μm | D50 ([1]; listed as Non-micronized): 29.2 μm | D90 ([1]; listed as Non-micronized): 99.7 μm | Specific surface area ([1]; listed as Non-micronized): 0.9 m^2/g | Surface weighted mean ([1]; listed as Non-micronized): 6.5 μm | Vol. weighted mean ([1]; listed as Non-micronized): 42.0 μm | weight gain from 0% to 90% (DVS) [2]: 0.9431% | weight gain from 0% to 90% (DVS) [2, 7]: 0.9431% | hygroscopicity (in words) [2]: only slightly hygroscopic | hygroscopicity (in words) [2, 7]: only slightly hygroscopic | Dissolution (15 min, 600 mg/vessel, 75 rpm, 900 mL 2.0% Tween-20 in 0.05M sodium phosphate buffer pH 3.0, 37° C., listed as Non-micronized): 56.83% | Dissolution (30 min, same medium, listed as Non-micronized): 81.61% | Dissolution (45 min, same medium, listed as Non-micronized): 88.06% | Dissolution (60 min, same medium, listed as Non-micronized): 90.45% | Solubility [3, 6]: 1.36* mg/ml | Solubility ([3]; pH 4.5 buffer): 0.22 mg/mL | Solubility ([3]; pH 6.8 buffer): 0.21 mg/mL | Solubility ([3]; pH 7.4 buffer): 0.20 mg/mL | Solubility ([3]; water): 0.23 mg/mL | bulk density [4]: 0.472 ± 0.008 g/mL | denser when compared to the bulk density of the known ethanolate form [4]: approximately 26%

CC(C)CN(C[C@@H](O)[C@H](Cc1ccccc1)NC(=O)O[C@H]1CO[C@H]2OCC[C@H]21)S(=O)(=O)c1ccc(N)cc1 [darunavir ethanolate, [(1S,2R)-3-[[(4-aminophenyl)sulfonyl](2-methylpropyl)amino]-2-hydroxy-1-(phenylmethyl)propyl]-carbamic acid (3R,3aS,6aR)-hexahydrofuro[2,3-b]furan-3-yl ester, reference compound]
weight gain from 0% to 90% (DVS) [2]: 2.180% | hygroscopicity (in words) [2]: hygroscopic | loss of solvate during the desorption measurement ([2]; DVS desorption): lost the solvate ethanol molecules | bulk density ([4]; known ethanolate form, comparator): 0.374 ± 0.009 g/mL | solubility in water [5]: approximately 0.15 mg/mL

CC(C)CN(C[C@@H](O)[C@H](Cc1ccccc1)NC(=O)O[C@H]1CO[C@H]2OCC[C@H]21)S(=O)(=O)c1ccc(N)cc1 [darunavir tetrahydrofuran solvate, [(1S,2R)-3-[[(4-aminophenyl)sulfonyl](2-methylpropyl)amino]-2-hydroxy-1-(phenylmethyl)propyl]-carbamic acid (3R,3aS,6aR)-hexahydrofuro[2,3-b]furan-3-yl ester]
weight gain from 0% to 90% (DVS) [2]: 1.366% | weight gain from 0% to 90% (DVS) [2, 8]: 1.366% | hygroscopicity (in words) [2]: only slightly hygroscopic | hygroscopicity (in words) [2, 8]: slightly hygroscopic | solubility at 24 h ([3]; pH 1.2 buffer, pH 1.2, simulated gastric fluid, footnote *degraded): 1470 µg/mL | solubility at 24 h ([3]; pH 4.5 buffer, pH 4.5, aqueous buffer): 270 µg/mL | solubility at 24 h ([3]; pH 6.8 buffer, pH 6.8, aqueous buffer): 240 µg/mL | solubility at 24 h ([3]; pH 7.4 buffer, pH 7.4, aqueous buffer): 230 µg/mL | solubility at 24 h ([3]; water): 270 µg/mL | bulk density [4]: 0.431 ± 0.007 g/mL
